# Measured values as given in patent publication US20170290774A1, “NEUROKININ-1 RECEPTOR ANTAGONIST COMPOSITION FOR TREATMENT OF DISEASES AND CONDITIONS OF THE RESPIRATORY TRACT” (PLUS VITECH, S.L., priority 2014, published 2017).
# Like-named read-outs stand apart in the source and are kept apart here.
# How the values were obtained:
# [1] = Saturation concentration in different oils (soy, sunflower, rapeseed); format: physicochemical; conditions: 25° C.
# Method: Each of said mixtures was continuously and gently stirred for 10 minutes at ambient temperature (25° C.) and then maintained at rest for 60 minutes. The saturation concentration was considered to be that which was immediately less than a concentration where deposition was observed, but in which no deposition of the active ingredient was observed.
# [2] = tested on: MMP-7; assay: Immunohistochemistry of MMP-7 in respiratory tract tissue of sodium hypochlorite aerosol-treated rabbits; format: in vivo, New Zealand albino rabbits
# Description: It is known that the factors TGF-α, TGF-β 1, TGF-β 2, TGF-β 3, SPARC, MMP-3; MMP-7, MMP-9, MMP-11, MMP-13 and MMP-14, TGF-β, NF-kB, EGF, MMP-9, VEGF and TNF-α which are produced by lung cells (pneumocytes, fibroblasts and vascular endothelial cells) and inflammatory cells (macrophages, lymphocytes and polymorphonuclear leukocytes) are involved in the pathophysiology and development of said respiratory tract diseases. […] Herein, 27 New Zealand albino rabbits (New Zealand White Rabbit) with an initial average weight about 3 kg were used in this example. All subjects were administered an aerosol of a solution consisting of a mixture of water and sodium hypochlorite (35 g sodium hypochlorite per liter of water) at a rate of 5 mL of said solution by inhalation three times a day for 7 days (days 1 to 7 of experimentation). Subsequently, from days 3 to 7, a group of 3 rabbits (Group 1) was administered an oral dose of 10 mg/kg body weight per day, another group of 3 rabbits (Group 2) was administered an oral dose of 40 mg/kg body weight per day, a third group (Group 3) was administered an oral dose of 80 mg/kg body weight per day and a fourth group (Group 4) was administered an oral dose of 100 mg/kg body weight per day. […] This mixture was administered as an aerosol by inhalation, also from days 3 to 7, to a group of 3 rabbits (group 5) at a dose of 0.05 mg/kg body weight per day, to another group of three rabbits (Group 6) at a dose of 0.1 mg/kg body weight per day, to another group of three rabbits (Group 7) at a dose of 0.2 mg/kg body weight per day and to another group of three rabbits (Group 8) at a dose of 0.4 mg/kg body weight per day. A placebo consisting only of olive oil was administered from days 3 to 7 to a control group of 3 rabbits (placebo group). In parallel, 3 rabbits were kept under identical conditions but were not administered any treatment nor the aforementioned sodium hypochlorite solution (control group). […] On day 7 of the experiment all animals were euthanized and necropsied. […] Samples were taken at the peripheral level of the lung parenchyma, just below the pleural surface. Tissue samples were also taken from the nasal cavity, pharynx, larynx and bronchi. Immunohistochemistry studies were performed for all samples to evaluate the levels of the markers TGF-α, TGF-β 1, TGF-β 2, TGF-β 3 SPARC, MMP-3; MMP-7, MMP-9, MMP-11, MMP-14, TGF-β, TNF-α and VEGF. In said immunohistochemistry studies, a sample of each sample was dehydrated by treatment with increasing concentrations of ethanol and finally xylene. Subsequently said dried samples were embedded in paraffin, thus creating a block. Said paraffin blocks were cut on a microtome to a thickness of 5 μm, and the resulting sections (slices) were placed on slides suitable for conducting immunohistochemistry techniques. Subsequently, the sections were deparaffinised by immersion in xylene and then rehydrated through immersion in a series of solutions containing decreasing concentrations of ethanol and, finally, water. […] The samples were then allowed to cool to room temperature over 10 minutes. Endogenous peroxidase activity was blocked by treatment with 3% hydrogen peroxide over 30 min at room temperature. […] In order to verify the expression of NK1 receptors, the cell samples were incubated in the presence of anti-NK1 antibodies ([…], Sigma-Aldrich) diluted 1:1000 at 4° C. overnight. After this time they were washed in 0.05M Tris buffer at room temperature. Subsequently, Envision System-HRP (Dako) reagents were added for 30 min at room temperature. Once this time had expired, the samples were again washed with 0.05 M Tris buffer, and immunoreactivity was visualized by light microscopy with a chromogenic solution with 3,3'-diaminobenzidine (DAB+; Dako, USA). In order to differentiate the cell nuclei, these were lightly stained with haematoxylin. Samples that were not incubated with the primary antibody, but wherein this was replaced by a non-immune serum were used as negative controls. […]
# [3] = cited from earlier work
# [4] = single oral dose of 125 mg of Emend
# [5] = terminal nephropathy with hemodialysis, single dose of 240 mg of Emend
smiles,measurement,setting,value
"C[C@@H](OC1OCCN(Cc2nc(=O)[nH][nH]2)C1c1ccc(F)cc1)c1cc(C(F)(F)F)cc(C(F)(F)F)c1 (stereo in doubt) [Aprepitant, 5-([(2R,3S)-2-((R)-1-[3,5-bis(trifluoromethyl)phenyl]ethoxy)-3-(4-fluorophenyl)morpholino]methyl)-1H-1,2,4-triazol-3(2H)-one]",Saturation concentration,[1]; Rapeseed oil,80 nM
same,Saturation concentration,[1]; Soy oil,60 nM
same,Saturation concentration,[1]; Sunflower oil,70 nM
same,Percent increase in MMP-7 with respect to the control group,"[2]; bronchial tissue, Group 1, oral 10 mg/kg per day",504.23%
same,Percent increase in MMP-7 with respect to the control group,"[2]; bronchial tissue, Group 2, oral 40 mg/kg per day",406.34%
same,Percent increase in MMP-7 with respect to the control group,"[2]; bronchial tissue, Group 3, oral 80 mg/kg per day",398.45%
same,Percent increase in MMP-7 with respect to the control group,"[2]; bronchial tissue, Group 4, oral 100 mg/kg per day",289.56%
same,% Med G5/C: percent increase in marker MMP-7 with respect to the control group,"[2]; bronchial tissue, Group 5",549.34%
same,% Med G6/C: percent increase in marker MMP-7 with respect to the control group,"[2]; bronchial tissue, Group 6",467.45%
same,% Med G7/C: percent increase in marker MMP-7 with respect to the control group,"[2]; bronchial tissue, Group 7",356.47%
same,% Med G8/C: percent increase in marker MMP-7 with respect to the control group,"[2]; bronchial tissue, Group 8",241.56%
same,Percent increase in MMP-7 with respect to the control group,"[2]; laryngeal tissue, Group 1, oral 10 mg/kg per day","1,012.67%"
same,Percent increase in MMP-7 with respect to the control group,"[2]; laryngeal tissue, Group 2, oral 40 mg/kg per day",899.78%
same,Percent increase in MMP-7 with respect to the control group,"[2]; laryngeal tissue, Group 3, oral 80 mg/kg per day",788.56%
same,Percent increase in MMP-7 with respect to the control group,"[2]; laryngeal tissue, Group 4, oral 100 mg/kg per day",576.89%
same,Percent increase in MMP-7 with respect to the control group,"[2]; laryngeal tissue, Group 5, inhalation 0.05 mg/kg per day","1,205.45%"
same,Percent increase in MMP-7 with respect to the control group,"[2]; laryngeal tissue, Group 6, inhalation 0.1 mg/kg per day",809.54%
same,Percent increase in MMP-7 with respect to the control group,"[2]; laryngeal tissue, Group 7, inhalation 0.2 mg/kg per day",372.23%
same,Percent increase in MMP-7 with respect to the control group,"[2]; laryngeal tissue, Group 8, inhalation 0.4 mg/kg per day",112.25%
same,Percent increase in MMP-7 with respect to the control group,"[2]; lung tissue, Group 1, oral 10 mg/kg per day",345.90%
same,Percent increase in MMP-7 with respect to the control group,"[2]; lung tissue, Group 2, oral 40 mg/kg per day",325.50%
same,Percent increase in MMP-7 with respect to the control group,"[2]; lung tissue, Group 3, oral 80 mg/kg per day",220.38%
same,Percent increase in MMP-7 with respect to the control group,"[2]; lung tissue, Group 4, oral 100 mg/kg per day",184.56%
same,Percent increase in MMP-7 with respect to the control group,"[2]; lung tissue, Group 5, inhalation 0.05 mg/kg per day",321.48%
same,Percent increase in MMP-7 with respect to the control group,"[2]; lung tissue, Group 6, inhalation 0.1 mg/kg per day",232.63%
same,Percent increase in MMP-7 with respect to the control group,"[2]; lung tissue, Group 7, inhalation 0.2 mg/kg per day",142.07%
same,Percent increase in MMP-7 with respect to the control group,"[2]; lung tissue, Group 8, inhalation 0.4 mg/kg per day",109.05%
same,Percent increase in MMP-7 with respect to the control group,"[2]; nasal cavity tissue, Group 1, oral 10 mg/kg per day","2,267.10%"
same,Percent increase in MMP-7 with respect to the control group,"[2]; nasal cavity tissue, Group 2, oral 40 mg/kg per day","1,308.16%"
same,Percent increase in MMP-7 with respect to the control group,"[2]; nasal cavity tissue, Group 3, oral 80 mg/kg per day","1,119.62%"
same,Percent increase in MMP-7 with respect to the control group,"[2]; nasal cavity tissue, Group 4, oral 100 mg/kg per day",942.01%
same,Percent increase in MMP-7 with respect to the control group,"[2]; nasal cavity tissue, Group 5, inhalation 0.05 mg/kg per day","1,835.98%"
same,Percent increase in MMP-7 with respect to the control group,"[2]; nasal cavity tissue, Group 6, inhalation 0.1 mg/kg per day","1,147.87%"
same,Percent increase in MMP-7 with respect to the control group,"[2]; nasal cavity tissue, Group 7, inhalation 0.2 mg/kg per day",444.94%
same,Percent increase in MMP-7 with respect to the control group,"[2]; nasal cavity tissue, Group 8, inhalation 0.4 mg/kg per day",136.90%
same,Percent increase in MMP-7 with respect to the control group,"[2]; pharyngeal tissue, Group 1, oral 10 mg/kg per day","2,004.34%"
same,Percent increase in MMP-7 with respect to the control group,"[2]; pharyngeal tissue, Group 2, oral 40 mg/kg per day","1,591.34%"
same,Percent increase in MMP-7 with respect to the control group,"[2]; pharyngeal tissue, Group 3, oral 80 mg/kg per day","1,456.45%"
same,Percent increase in MMP-7 with respect to the control group,"[2]; pharyngeal tissue, Group 4, oral 100 mg/kg per day",967.12%
same,Percent increase in MMP-7 with respect to the control group,"[2]; pharyngeal tissue, Group 5, inhalation 0.05 mg/kg per day","1,820.78%"
same,Percent increase in MMP-7 with respect to the control group,"[2]; pharyngeal tissue, Group 6, inhalation 0.1 mg/kg per day","1,109.45%"
same,Percent increase in MMP-7 with respect to the control group,"[2]; pharyngeal tissue, Group 7, inhalation 0.2 mg/kg per day",450.45%
same,Percent increase in MMP-7 with respect to the control group,"[2]; pharyngeal tissue, Group 8, inhalation 0.4 mg/kg per day",121.80%
same,effect of mild hepatic insufficiency on pharmacokinetics,[3]; Child-Pugh score of 5 to 6,does not affect to a clinically relevant degree
same,oral bioavailability,[3]; Emend capsule of 80 mg,67%
same,oral bioavailability,[3]; Emend capsule of 125 mg,59%
same,linearity of pharmacokinetics,[3]; clinical dose interval,non-linear pharmacokinetics
same,AUC0-24 h greater in elderly (≧65 years) than younger adults,"[3]; day 1, oral 125 mg Emend",21%
same,Cmax greater in elderly than younger adults,[3]; day 1,10%
same,AUC0-24 h greater in elderly (≧65 years) than younger adults,"[3]; day 5, 80 mg once a day",36%
same,Cmax greater in elderly than younger adults,[3]; day 5,24%
same,share of plasma radioactivity,"[3]; healthy young adults, over 72 hours after single 100 mg intravenous dose of [C14] prodrug",approximately 19%
same,increase in AUC0-∞ greater in proportion to the dose,"[3]; healthy young adults, single doses of 80 mg and 125 mg, postprandial",26%
same,metabolites identified in human plasma,[3]; human plasma,12
same,increase of AUC with food,[3]; oral capsule with standard breakfast of approximately 800 Kcal,up to 40%
same,Tmax,[3]; oral,approximately 4 hours
same,reduction of AUC0-∞ of total aprepitant with respect to healthy patients,"[3]; severe renal insufficiency (CrCl<30 ml/min), single dose of 240 mg of Emend",21%
same,reduction of Cmax with respect to healthy patients,"[3]; severe renal insufficiency, single dose of 240 mg of Emend",32%
same,Cmax greater in women than men,[3]; [4],16%
same,half-life greater in women than men,[3]; [4],25%
same,reduction of AUC0-∞ of total aprepitant,[3]; [5],42%
same,reduction of Cmax,[3]; [5],32%
